Where two headings read alike, the source gives them in different places.
What was measured:
mu-opioid receptor (MOR) = target: T1, mu-opioid receptor (MOR) (Rattus norvegicus, UniProt P33535); assay: MOR radioligand competition binding assay ([3H]-DAMGO); details: Mu screening results
T1 construct: Rat cortices were homogenized using 50 mM Tris, pH 7.4, and centrifuged at 16,500 rpm for 10 min; from tissue; host or cells: rat cortex membranes
Experimental: MOR binding assay: Rat cortices were homogenized using 50 mM Tris, pH 7.4, and centrifuged at 16,500 rpm for 10 min. The pellets were resuspended in fresh buffer and incubated at 37 °C for 30 min. Following incubation, the suspensions were centrifuged as before, the resulting pellets were resuspended in 100 volumes of 50 mM Tris, pH 7.4 plus 2 mg/mL bovine serum and the suspensions combined. Each assay tube contained 0.5 mL of membrane suspension, 2 nM [^3H]-DAMGO, and 0.02 mg/mL mixture in a total volume of 0.65 mL [13, 45, 53, 55].
(§1) All three binding assays were terminated by filtration through GF/B filters, soaked in 5 mg/mL bovine serum albumin, 50 mM Tris, pH 7.4, on a Tomtec Mach II Harvester 96. The filters were subsequently washed with 6 mL of assay buffer. Bound radioactivity was counted on a Wallac Betaplate Liquid Scintillation Counter. Experiments were conducted using two replicates and repeated twice. Values in Scheme 2 represent the mean ± SD of two experiments with two replicates in each test.

[1] = target: T2, kappa-opioid receptor (KOR) (Cavia porcellus, UniProt P41144); assay: KOR radioligand competition binding assay ([3H]U69,593); parameters: species or system guinea pig; details: Kappa screening results
T2 construct: Guinea pig cortices and cerebella were homogenized using 50 mM Tris, pH 7.4; from tissue; host or cells: guinea pig cortex and cerebellum membranes
Experimental: KOR binding assay: Guinea pig cortices and cerebella were homogenized using 50 mM Tris, pH 7.4, 10 mM MgCl2-6H2O, […] centrifuged and incubated as above. Each assay tube contained 2 nM [^3H]U69,593. Assay tubes were incubated for 2 h at 25 °C. Unlabeled U50,488 was used as a competitor to generate a standard curve and determine nonspecific binding.
as §1

[2] = target: T3, delta-opioid receptor (DOR) (Rattus norvegicus, UniProt P33533); assay: DOR radioligand competition binding assay ([3H]-DPDPE); details: Delta screening results
T3 construct: Rat cortices were homogenized using 50 mM Tris, pH 7.4, 10 mM MgCl2-6H2O, 200 µM PMSF; from tissue; host or cells: rat cortex membranes
Experimental: DOR binding assay: Rat cortices were homogenized using 50 mM Tris, pH 7.4, 10 mM MgCl2-6H2O, 200 µM PMSF, centrifuged and incubated as above. Each assay tube contained 2 nM [^3H]-DPDPE. Assay tubes were incubated for 2.5 h at 25 °C. Unlabeled DPDPE was used as a competitor to generate a standard curve and determine nonspecific binding.
as §1

[3] = experiment 1, unit inferred, read-out: Ki (Exp 1)
[4] = experiment 2, unit inferred, read-out: Ki (Exp 2)
[5] = mean of Exp 1 and Exp 2, unit inferred, read-out: MEAN (Ki)
[6] = mean of two experiments, read-out: Ki
[7] = first Ki column, unit not printed (apparently M), read-out: Ki (first column)
[8] = mean of both Ki, unit inferred, read-out: MEAN (Ki)
[9] = second Ki column, unit not printed (apparently M), read-out: Ki (second column)

Compound | Ki (mu-opioid receptor (MOR); [3]) | Ki (mu-opioid receptor (MOR); [4]) | Ki (mu-opioid receptor (MOR); [5]) | Ki (mu-opioid receptor (MOR); [6]) | Ki [1, 3] | Ki [1, 4] | Ki [1, 5] | Ki [1, 6] | Ki [2, 7] | Ki [2, 8] | Ki [2, 6] | Ki [2, 9]
Cc1cc(O)cc(C)c1C[C@@H](CN1C(=N)NC[C@@H]1Cc1ccc(O)cc1)N1C[C@H](Cc2ccccc2)NC1=N [1968-29] | 117 nM | 114 nM | 116 nM | 116 nM | 1450 nM | 1450 nM | 1450 nM | 1450 nM | 967 nM | 836 nM | 836 nM | 705 nM
Cc1cc(O)cc(C)c1C[C@@H](CN1C(=N)NC[C@@H]1Cc1ccc(O)cc1)N1C[C@H](Cc2ccc(O)cc2)NC1=N [1968-30] | 98.8 nM | 127 nM | 113 nM | 113 nM | 1730 nM | 1760 nM | 1740 nM | 1740 nM | 1340 nM | 1200 nM | 1200 nM | 1070 nM
Cc1cc(O)cc(C)c1C[C@@H](CN1C(=N)NC[C@@H]1Cc1ccc(O)cc1)N1C[C@H](CC(C)C)NC1=N [1968-31] | 295 nM | 298 nM | 297 nM | 297 nM | 2580 nM | 2080 nM | 2330 nM | 2330 nM | 2200 nM | 1940 nM | 1940 nM | 1680 nM
Cc1cc(O)cc(C)c1C[C@H]1CN([C@@H](Cc2c(C)cc(O)cc2C)CN2C(=N)NC[C@@H]2Cc2ccc(O)cc2)C(=N)N1 [1968-32] | 106 nM | 134 nM | 120 nM | 120 nM | 1760 nM | 1480 nM | 1620 nM | 1620 nM | 469 nM | 488 nM | 488 nM | 507 nM
C[C@H]1CNC(=N)N1C[C@H](Cc1ccccc1)N1C[C@H](Cc2ccccc2)NC1=N [1968-33] | 4170 nM | 2540 nM | 3350 nM | 3360 nM | 16300 nM | 14100 nM | 15200 nM | 15200 nM | 16600 nM | 11300 nM | 11300 nM | 5950 nM
C[C@H]1CNC(=N)N1C[C@H](Cc1ccccc1)N1C[C@H](Cc2ccc(O)cc2)NC1=N [1968-34] | 1480 nM | 1070 nM | 1280 nM | 1280 nM | 6520 nM | 9150 nM | 7830 nM | 7830 nM | 5140 nM | 6650 nM | 6650 nM | 8160 nM
Cc1cc(O)cc(C)c1C[C@H]1CN([C@@H](Cc2ccccc2)CN2C(=N)NC[C@@H]2C)C(=N)N1 [1968-36] | 167 nM | 124 nM | 146 nM | 146 nM | 1030 nM | 1320 nM | 1170 nM | 1170 nM | 3710 nM | 3550 nM | 3550 nM | 3400 nM
C[C@H]1CNC(=N)N1C[C@H](Cc1ccc(O)cc1)N1C[C@H](Cc2ccccc2)NC1=N [1968-37] | 749 nM | 588 nM | 669 nM | 669 nM | 3450 nM | 3880 nM | 3660 nM | 3660 nM | 3430 nM | 3610 nM | 3610 nM | 3800 nM
C[C@H]1CNC(=N)N1C[C@H](Cc1ccc(O)cc1)N1C[C@H](Cc2ccc(O)cc2)NC1=N [1968-38] | 174 nM | 195 nM | 184 nM | 184 nM | 1690 nM | 1960 nM | 1820 nM | 1820 nM | 4270 nM | 3800 nM | 3800 nM | 3330 nM
CC(C)C[C@H]1CN([C@@H](Cc2ccc(O)cc2)CN2C(=N)NC[C@@H]2C)C(=N)N1 [1968-39] | 1240 nM | 1770 nM | 1500 nM | 1500 nM | 4090 nM | 7720 nM | 5900 nM | 5900 nM | 4150 nM | 3830 nM | 3830 nM | 3510 nM
Cc1cc(O)cc(C)c1C[C@H]1CN([C@@H](Cc2ccc(O)cc2)CN2C(=N)NC[C@@H]2C)C(=N)N1 [1968-40] | 36.4 nM | 48.8 nM | 42.6 nM | 43 nM | 235 nM | 263 nM | 249 nM | 249 nM | 1520 nM | 1420 nM | 1420 nM | 1320 nM
CC(C)C[C@@H](CN1C(=N)NC[C@@H]1C)N1C[C@H](Cc2ccccc2)NC1=N [1968-41] | 5620 nM | 7390 nM | 6510 nM | 6510 nM | 23900 nM | 22000 nM | 23000 nM | 23000 nM | 7310 nM | – | – | –
CC(C)C[C@@H](CN1C(=N)NC[C@@H]1C)N1C[C@H](Cc2ccc(O)cc2)NC1=N [1968-42] | 2130 nM | 2470 nM | 2300 nM | 2300 nM | 12300 nM | 12300 nM | 12300 nM | 12300 nM | 20600 nM | 55700 nM | 55700 nM | 90800 nM
CC(C)C[C@H]1CN([C@@H](CC(C)C)CN2C(=N)NC[C@@H]2C)C(=N)N1 [1968-43] | 7810 nM | 10700 nM | 9260 nM | 9260 nM | 36000 nM | 53000 nM | 44500 nM | 44500 nM | 9250 nM | 7970 nM | 7970 nM | 6690 nM
Cc1cc(O)cc(C)c1C[C@H]1CN([C@@H](CC(C)C)CN2C(=N)NC[C@@H]2C)C(=N)N1 [1968-44] | 157 nM | 244 nM | 200 nM | 200 nM | 1830 nM | 1420 nM | 1630 nM | 1630 nM | 10200 nM | 7630 nM | 7630 nM | 5060 nM
Cc1cc(O)cc(C)c1C[C@H]1CNC(=N)N1C[C@H](Cc1ccccc1)N1C[C@H](Cc2ccccc2)NC1=N [1968-49] | 53.4 nM | 84.7 nM | 69.1 nM | 69 nM | 1230 nM | 1210 nM | 1220 nM | 1220 nM | 615 nM | 543 nM | 543 nM | 472 nM
Cc1cc(O)cc(C)c1C[C@H]1CNC(=N)N1C[C@H](Cc1ccccc1)N1C[C@H](Cc2ccc(O)cc2)NC1=N [1968-50] | 61.6 nM | 114 nM | 87.8 nM | 88 nM | 1900 nM | 1740 nM | 1820 nM | 1820 nM | 1100 nM | 896 nM | 896 nM | 690 nM
Cc1cc(O)cc(C)c1C[C@H]1CNC(=N)N1C[C@H](Cc1ccccc1)N1C[C@H](CC(C)C)NC1=N [1968-51] | 126 nM | 162 nM | 144 nM | 144 nM | 872 nM | 639 nM | 755 nM | 755 nM | 2580 nM | 2550 nM | 2560 nM | 2530 nM
Cc1cc(O)cc(C)c1C[C@H]1CN([C@@H](Cc2ccccc2)CN2C(=N)NC[C@@H]2Cc2c(C)cc(O)cc2C)C(=N)N1 [1968-52] | 83.4 nM | 102 nM | 92.8 nM | 93 nM | 1200 nM | 1240 nM | 1220 nM | 1220 nM | 582 nM | 551 nM | 551 nM | 521 nM
